Measurements as given in PubChem BioAssay (NCI).
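Where inhibition never reached the appropriate level, the endpoint shown equals the highest concentration tested. Otherwise, values were interpolated linearly from a five-concentration, 48-hour dose response in 96-well plates. Definition used: TGI = concentration required for complete inhibition of growth.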

Tests used:
Assay in all cases: NCI anticancer screen, dose series, 48 h
786-0 renal = tested on: 786-0 renal
A549 NSCLC = tested on: A549 NSCLC
ACHN renal = tested on: ACHN renal
BT-549 breast = tested on: BT-549 breast
CAKI-1 renal = tested on: CAKI-1 renal
CCRF-CEM leukemia = tested on: CCRF-CEM leukemia
COLO 205 colon = tested on: COLO 205 colon
DU-145 prostate = tested on: DU-145 prostate
EKVX NSCLC = tested on: EKVX NSCLC
HCC-2998 colon = tested on: HCC-2998 colon
HCT-116 colon = tested on: HCT-116 colon
HCT-15 colon = tested on: HCT-15 colon
HL-60(TB) leukemia = tested on: HL-60(TB) leukemia
HOP-92 NSCLC = tested on: HOP-92 NSCLC
HS 578T breast = tested on: HS 578T breast
HT29 colon = tested on: HT29 colon
IGROV1 ovarian = tested on: IGROV1 ovarian
K-562 leukemia = tested on: K-562 leukemia
KM12 colon = tested on: KM12 colon
LOX IMVI melanoma = tested on: LOX IMVI melanoma
M14 melanoma = tested on: M14 melanoma
MCF7 breast = tested on: MCF7 breast
MDA-MB-231 breast = tested on: MDA-MB-231 breast
MDA-MB-435 = tested on: MDA-MB-435
MDA-N = tested on: MDA-N
MOLT-4 leukemia = tested on: MOLT-4 leukemia
NCI-H226 lung = tested on: NCI-H226 lung
NCI-H23 lung = tested on: NCI-H23 lung
NCI-H460 lung = tested on: NCI-H460 lung
NCI-H522 lung = tested on: NCI-H522 lung
NCI/ADR-RES ovarian = tested on: NCI/ADR-RES ovarian
OVCAR-3 ovarian = tested on: OVCAR-3 ovarian
OVCAR-4 ovarian = tested on: OVCAR-4 ovarian
OVCAR-5 ovarian = tested on: OVCAR-5 ovarian
OVCAR-8 ovarian = tested on: OVCAR-8 ovarian
PC-3 prostate = tested on: PC-3 prostate
RPMI-8226 leukemia = tested on: RPMI-8226 leukemia
SF-268 CNS = tested on: SF-268 CNS
SF-295 CNS = tested on: SF-295 CNS
SF-539 CNS = tested on: SF-539 CNS
SK-MEL-2 melanoma = tested on: SK-MEL-2 melanoma
SK-MEL-28 melanoma = tested on: SK-MEL-28 melanoma
SK-MEL-5 melanoma = tested on: SK-MEL-5 melanoma
SK-OV-3 ovarian = tested on: SK-OV-3 ovarian
SN12C renal = tested on: SN12C renal
SNB-19 CNS = tested on: SNB-19 CNS
SR leukemia = tested on: SR leukemia
SW-620 colon = tested on: SW-620 colon
T-47D breast = tested on: T-47D breast
TK-10 renal = tested on: TK-10 renal
U251 CNS = tested on: U251 CNS
UACC-257 melanoma = tested on: UACC-257 melanoma
UACC-62 melanoma = tested on: UACC-62 melanoma
UO-31 renal = tested on: UO-31 renal
HOP-62 NSCLC = tested on: HOP-62 NSCLC
MALME-3M melanoma = tested on: MALME-3M melanoma
RXF 393 renal = tested on: RXF 393 renal
SNB-75 CNS = tested on: SNB-75 CNS

Structure (SMILES): Cc1ccc(C(=O)N/N=C(\N=Nc2ccccc2Cl)c2ccc(N(C)C)cc2)cc1
- TGI (786-0 renal): > 100 µM
- TGI (A549 NSCLC): > 100 µM
- TGI (ACHN renal): 46.1 µM
- TGI (BT-549 breast): 97.1 µM
- TGI (CAKI-1 renal): 75.4 µM
- TGI (CCRF-CEM leukemia): > 100 µM
- TGI (COLO 205 colon): > 100 µM
- TGI (DU-145 prostate): 70.6 µM
- TGI (EKVX NSCLC): > 100 µM
- TGI (HCC-2998 colon): > 100 µM
- TGI (HCT-116 colon): > 100 µM
- TGI (HCT-15 colon): > 100 µM
- TGI (HL-60(TB) leukemia): > 100 µM
- TGI (HOP-92 NSCLC): > 100 µM
- TGI (HS 578T breast): > 100 µM
- TGI (HT29 colon): > 100 µM
- TGI (IGROV1 ovarian): > 100 µM
- TGI (K-562 leukemia): > 100 µM
- TGI (KM12 colon): > 100 µM
- TGI (LOX IMVI melanoma): > 100 µM
- TGI (M14 melanoma): > 100 µM
- TGI (MCF7 breast): > 100 µM
- TGI (MDA-MB-231 breast): > 100 µM
- TGI (MDA-MB-435): 29.6 µM
- TGI (MDA-N): 34.5 µM
- TGI (MOLT-4 leukemia): > 100 µM
- TGI (NCI-H226 lung): > 100 µM
- TGI (NCI-H23 lung): > 100 µM
- TGI (NCI-H460 lung): > 100 µM
- TGI (NCI-H522 lung): > 100 µM
- TGI (NCI/ADR-RES ovarian): > 100 µM
- TGI (OVCAR-3 ovarian): > 100 µM
- TGI (OVCAR-4 ovarian): 78.4 µM
- TGI (OVCAR-5 ovarian): > 100 µM
- TGI (OVCAR-8 ovarian): > 100 µM
- TGI (PC-3 prostate): > 100 µM
- TGI (RPMI-8226 leukemia): > 100 µM
- TGI (SF-268 CNS): > 100 µM
- TGI (SF-295 CNS): > 100 µM
- TGI (SF-539 CNS): > 100 µM
- TGI (SK-MEL-2 melanoma): > 100 µM
- TGI (SK-MEL-28 melanoma): > 100 µM
- TGI (SK-MEL-5 melanoma): > 100 µM
- TGI (SK-OV-3 ovarian): > 100 µM
- TGI (SN12C renal): > 100 µM
- TGI (SNB-19 CNS): 84.5 µM
- TGI (SR leukemia): 68.7 µM
- TGI (SW-620 colon): > 100 µM
- TGI (T-47D breast): 24.5 µM
- TGI (TK-10 renal): > 100 µM
- TGI (U251 CNS): > 100 µM
- TGI (UACC-257 melanoma): > 100 µM
- TGI (UACC-62 melanoma): 17.8 µM
- TGI (UO-31 renal): > 100 µM

Structure (SMILES): O=c1cccc2n1CC1CNC[C@H]2C1
- TGI (786-0 renal): > 100 µM
- TGI (A549 NSCLC): > 100 µM
- TGI (ACHN renal): > 100 µM
- TGI (BT-549 breast): > 100 µM
- TGI (CAKI-1 renal): > 100 µM
- TGI (CCRF-CEM leukemia): > 100 µM
- TGI (COLO 205 colon): > 100 µM
- TGI (DU-145 prostate): > 100 µM
- TGI (EKVX NSCLC): > 100 µM
- TGI (HCC-2998 colon): > 100 µM
- TGI (HCT-116 colon): > 100 µM
- TGI (HCT-15 colon): > 100 µM
- TGI (HOP-62 NSCLC): > 100 µM
- TGI (HOP-92 NSCLC): > 100 µM
- TGI (HS 578T breast): > 100 µM
- TGI (HT29 colon): > 100 µM
- TGI (IGROV1 ovarian): > 100 µM
- TGI (K-562 leukemia): > 100 µM
- TGI (KM12 colon): > 100 µM
- TGI (LOX IMVI melanoma): > 100 µM
- TGI (M14 melanoma): > 100 µM
- TGI (MALME-3M melanoma): > 100 µM
- TGI (MCF7 breast): > 100 µM
- TGI (MDA-MB-231 breast): > 100 µM
- TGI (MDA-MB-435): > 100 µM
- TGI (MDA-N): > 100 µM
- TGI (MOLT-4 leukemia): > 100 µM
- TGI (NCI-H23 lung): > 100 µM
- TGI (NCI-H460 lung): > 100 µM
- TGI (NCI-H522 lung): > 100 µM
- TGI (NCI/ADR-RES ovarian): > 100 µM
- TGI (OVCAR-3 ovarian): > 100 µM
- TGI (OVCAR-4 ovarian): > 100 µM
- TGI (OVCAR-5 ovarian): > 100 µM
- TGI (OVCAR-8 ovarian): > 100 µM
- TGI (PC-3 prostate): > 100 µM
- TGI (RXF 393 renal): > 100 µM
- TGI (SF-268 CNS): > 100 µM
- TGI (SF-295 CNS): > 100 µM
- TGI (SK-MEL-2 melanoma): > 100 µM
- TGI (SK-MEL-28 melanoma): > 100 µM
- TGI (SK-MEL-5 melanoma): > 100 µM
- TGI (SK-OV-3 ovarian): > 100 µM
- TGI (SN12C renal): > 100 µM
- TGI (SNB-19 CNS): > 100 µM
- TGI (SNB-75 CNS): > 100 µM
- TGI (SW-620 colon): > 100 µM
- TGI (T-47D breast): > 100 µM
- TGI (TK-10 renal): > 100 µM
- TGI (U251 CNS): > 100 µM
- TGI (UACC-257 melanoma): > 100 µM
- TGI (UACC-62 melanoma): > 100 µM
- TGI (UO-31 renal): > 100 µM
